System: androgen receptor (AR) in LNCaP and/or VCaP cells
Experiment: Androgen Receptor ELISA assay (AR degradation)
Assay type: cell-based
Conditions: degradation of AR ELISA in LNCaP and/or VCaP cells; Table 2C; read-out: DC50 Code*
Protocol: Androgen Receptor ELISA Assay. […] The protocols used with VCaP cells are described below.
The cells were grown for a minimum of 3 days.
(2)(i) A 10× stock plate in media was made; (ii) 2.5 μL of the 1000× stock was transferred to a new 10× stock plate (use 12 channel pipet, start at A (DMSO control) work thru H. When 247.5 µL of media was added to this plate, it served as a 10× stock; (iii) made media+1 nM R1881 for making 10× stock plate; (iv) added 247.5 μL of media with 1 nM R1881 to each well of the 10× stock plate, mix.
Then 22 μL of 10× stock was added to cells and incubated for 5 hours. […] Media was aspirated, and 100 μL 1× cell lysis buffer/well was added. The cells were placed on a shaker located in a cold room for 10 minutes and shaken at speed 7. The lysate mixture was mix and 20 μL transferred to 100 μl of Diluent in ELISA plate (0.15 μg/ml-[…]). The lysate-diluent mixture was store at 4° C. overnight on a shaker located in a cold room at speed 5 (gentle swirl).
The lysate-diluent mixture was shaken for 30 minutes at 37° C. The mouse AR antibody, anti-mouse antibody, TMB, and STOP solution were allowed to come to room temperature. The 1×ELISA buffer included in kit was made and loaded in reservoir. Media from the plate was discarded, the ELISA plate was tapped hard on paper towel, and washed 4×200 μl ELISA wash buffer using a plate washer for the first three washes and an eight channel aspirator for the fourth wash to more thoroughly aspirate the solution.
Next, 100 μL/well of mouse AR detection Ab was added; the plate was covered and shaken at 37° C. for 1 hour; media was discarded from the plates, the plates tapped on a paper towel and washed four times with 200 μL ELISA wash buffer with a plate washer for the first three washes and an eight channel aspirator for the fourth wash; 100 μL/well of anti-mouse—HRP conjugated Ab (comes with the kit) was added; the plates was cover and shaken at 37° C. for 30 minutes; the TMB reagent was allowed to come to room temperature; the media from the plate was discarded, the plates tapped on paper towel, and washed four times with 200 μL ELISA wash buffer with a plate washer for the first three washes and an eight channel aspirator for the fourth wash; plates were tapped on paper towel; 100 μL TMB was added to each well and the plate shaken for 2 minutes—while watching color. STOP solution (100 μL) was added when light blue color developed.
Data was analyzed and plotted using GraphPad Prism software. Exemplary compounds of Tables 1A, 1B, and 1C were assayed and the data shown below in Tables 2A, 2B, and 2C. DC50 (nM) categories (degradation of AR ELISA in LNCaP and/or VCaP cells) of Tables 2A, 2B, and 2C are as follows: A<1 nM; 1≤B<10 nM; 10≤C<100 nM; D≥100 nM. Dmax (%) categories (degradation of AR ELISA in LNCaP and/or VCaP cells) of Table 2 are as follows: A≥70; 50≤B<70; C<50

[2H]C([2H])([2H])Oc1cc(O[C@H]2C[C@H](N(CC3CCN(c4cnc(C(=O)N[C@H]5C(C)(C)[C@H](Oc6cc(C)c(C#N)c(C)c6)C5(C)C)cn4)CC3)C(C)C)C2)cc2c1C(=O)N(C1CCC(=O)NC1=O)C2=O (mixture of isomers) [compound 195, rac-N-((1r,3r)-3-(4-cyano-3,5-dimethylphenoxy)-2,2,4,4-tetramethylcyclobutyl)-5-(4-((((1r,3r)-3-((2-(2,6-dioxopiperidin-3-yl)-7-(methoxy-d3)-1,3-dioxoisoindolin-5-yl)oxy)cyclobutyl) (isopropyl)amino)methyl)piperidin-1-yl)pyrazine-2-carboxamide]
DC50: < 1 nM

COc1cc(O[C@H]2C[C@H](OC3CCN(c4ccc(C(=O)N[C@H]5C(C)(C)[C@H](Oc6cc(C)c(C#N)c(C)c6)C5(C)C)cc4)CC3)C2)cc2c1C(=O)N(C1CCC(=O)NC1=O)C2=O (mixture of isomers) [compound 197, rac-N-((1r,3r)-3-(4-cyano-3,5-dimethylphenoxy)-2,2,4,4-tetramethylcyclobutyl)-4-(4-((1r,3r)-3-((2-(2,6-dioxopiperidin-3-yl)-7-methoxy-1,3-dioxoisoindolin-5-yl)oxy)cyclobutoxy)piperidin-1-yl)benzamide]
DC50: < 1 nM

CC(C)N(CC1CN(c2ccc(C(=O)N[C@H]3C(C)(C)[C@H](Oc4ccc(C#N)c(Cl)c4)C3(C)C)cc2)C1)[C@H]1C[C@H](Oc2ccc3c(c2)C(=O)N(C2CCC(=O)NC2=O)C3=O)C1 (mixture of isomers) [compound 198, rac-N-((1r,3r)-3-(3-chloro-4-cyanophenoxy)-2,2,4,4-tetramethylcyclobutyl)-4-(3-((((1r,3r)-3-((2-(2,6-dioxopiperidin-3-yl)-1,3-dioxoisoindolin-5-yl)oxy)cyclobutyl) (isopropyl)amino)methyl)azetidin-1-yl)benzamide]
DC50: < 1 nM

Cc1cc(O[C@H]2C(C)(C)[C@H](NC(=O)c3c(C)nc(N4CCC(CN(C(C)C)[C@H]5C[C@H](Oc6ccc7c(c6)C(=O)N(C6CCC(=O)NC6=O)C7=O)C5)CC4)nc3C)C2(C)C)cc(C)c1C#N (mixture of isomers) [compound 200, rac-N-((1r,3r)-3-(4-cyano-3,5-dimethylphenoxy)-2,2,4,4-tetramethylcyclobutyl)-2-(4-((((1r,3r)-3-((2-(2,6-dioxopiperidin-3-yl)-1,3-dioxoisoindolin-5-yl)oxy)cyclobutyl) (isopropyl)amino)methyl)piperidin-1-yl)-4,6-dimethylpyrimidine-5-carboxamide]
DC50: < 1 nM

[2H]C([2H])([2H])Oc1cc(O[C@H]2C(C)(C)[C@H](NC(=O)c3cnc(N4CCC(CN(C(C)C)[C@H]5C[C@H](Oc6cc(OC([2H])([2H])[2H])c7c(c6)C(=O)N(C6CCC(=O)NC6=O)C7=O)C5)CC4)cn3)C2(C)C)ccc1C#N (mixture of isomers) [compound 202, rac-N-((1r,3r)-3-(4-cyano-3-(methoxy-d3)phenoxy)-2,2,4,4-tetramethylcyclobutyl)-5-(4-((((1r,3r)-3-((2-(2,6-dioxopiperidin-3-yl)-7-(methoxy-d3)-1,3-dioxoisoindolin-5-yl)oxy)cyclobutyl) (isopropyl)amino)methyl)piperidin-1-yl)pyrazine-2-carboxamide]
DC50: < 1 nM

[2H]C([2H])([2H])Oc1cc(O[C@H]2C[C@H](N(CC3CCN(c4cnc(C(=O)N[C@H]5C(C)(C)[C@H](Oc6ccc(C#N)c(OC)c6)C5(C)C)cn4)CC3)C(C)C)C2)cc2c1C(=O)N(C1CCC(=O)NC1=O)C2=O (mixture of isomers) [compound 203, rac-N-((1r,3r)-3-(4-cyano-3-methoxyphenoxy)-2,2,4,4-tetramethylcyclobutyl)-5-(4-((((1r,3r)-3-((2-(2,6-dioxopiperidin-3-yl)-7-(methoxy-d3)-1,3-dioxoisoindolin-5-yl)oxy)cyclobutyl) (isopropyl)amino)methyl)piperidin-1-yl)pyrazine-2-carboxamide]
DC50: < 1 nM

CC(C)N(CC1CCN(c2cnc(C(=O)N[C@H]3C(C)(C)[C@H](Oc4ccc(C#N)c(Cl)c4)C3(C)C)cn2)CC1)[C@H]1C[C@H](Oc2cccc3c2CN(C2CCC(=O)NC2=O)C3=O)C1 (mixture of isomers) [compound 208, rac-N-((1r,3r)-3-(3-chloro-4-cyanophenoxy)-2,2,4,4-tetramethylcyclobutyl)-5-(4-((((1r,3r)-3-((2-(2,6-dioxopiperidin-3-yl)-1-oxoisoindolin-4-yl)oxy)cyclobutyl) (isopropyl)amino)methyl)piperidin-1-yl)pyrazine-2-carboxamide]
DC50: < 1 nM

COc1cc(O[C@H]2C(C)(C)[C@H](NC(=O)c3c(C)nc(N4CCC(CN(C(C)C)[C@H]5C[C@H](Oc6ccc7c(c6)C(=O)N(C6CCC(=O)NC6=O)C7=O)C5)CC4)nc3C)C2(C)C)ccc1C#N (mixture of isomers) [compound 211, rac-N-((1r,3r)-3-(4-cyano-3-methoxyphenoxy)-2,2,4,4-tetramethylcyclobutyl)-2-(4-((((1r,3r)-3-((2-(2,6-dioxopiperidin-3-yl)-1,3-dioxoisoindolin-5-yl)oxy)cyclobutyl) (isopropyl)amino)methyl)piperidin-1-yl)-4,6-dimethylpyrimidine-5-carboxamide]
DC50: < 1 nM

Cc1cc(O[C@H]2C(C)(C)[C@H](NC(=O)c3cnc(N4CCC(CN(C(C)C)[C@H]5C[C@H](Oc6ccc7c(c6)C(=O)N(C6CCC(=O)NC6=O)C7)C5)CC4)cn3)C2(C)C)cc(C)c1C#N (mixture of isomers) [compound 212, rac-N-((1r,3r)-3-(4-cyano-3,5-dimethylphenoxy)-2,2,4,4-tetramethylcyclobutyl)-5-(4-((((1r,3r)-3-((2-(2,6-dioxopiperidin-3-yl)-3-oxoisoindolin-5-yl)oxy)cyclobutyl) (isopropyl)amino)methyl)piperidin-1-yl)pyrazine-2-carboxamide]
DC50: < 1 nM

COc1cc(O[C@H]2C(C)(C)[C@H](NC(=O)c3ccc(N4CC5(CC(CN(C(C)C)[C@H]6C[C@H](Oc7ccc8c(c7)C(=O)N(C7CCC(=O)NC7=O)C8=O)C6)C5)C4)cc3)C2(C)C)ccc1C#N (mixture of isomers) [compound 216, rac-N-((1r,3r)-3-(4-cyano-3-methoxyphenoxy)-2,2,4,4-tetramethylcyclobutyl)-4-(6-((((1r,3r)-3-((2-(2,6-dioxopiperidin-3-yl)-1,3-dioxoisoindolin-5-yl)oxy)cyclobutyl) (isopropyl)amino)methyl)-2-azaspiro[3.3]heptan-2-yl)benzamide]
DC50: < 1 nM

COc1cc(O[C@H]2C[C@H](N(C)CC3CCN(c4cnc(C(=O)N[C@H]5C(C)(C)[C@H](Oc6cc(C)c(C#N)c(C)c6)C5(C)C)cn4)CC3)C2)cc2c1C(=O)N(C1CCC(=O)NC1=O)C2=O (mixture of isomers) [compound 218, rac-N-((1r,3r)-3-(4-cyano-3,5-dimethylphenoxy)-2,2,4,4-tetramethylcyclobutyl)-5-(4-((((1r,3r)-3-((2-(2,6-dioxopiperidin-3-yl)-7-methoxy-1,3-dioxoisoindolin-5-yl)oxy)cyclobutyl) (methyl)amino)methyl)piperidin-1-yl)pyrazine-2-carboxamide]
DC50: < 1 nM

COc1cc(O[C@H]2C[C@H](N3CCOC4(CCN(c5ccc(C(=O)N[C@H]6C(C)(C)[C@H](Oc7cc(C)c(C#N)c(C)c7)C6(C)C)cc5)CC4)C3)C2)cc2c1C(=O)N(C1CCC(=O)NC1=O)C2=O (mixture of isomers) [compound 220, rac-N-((1r,3r)-3-(4-cyano-3,5-dimethylphenoxy)-2,2,4,4-tetramethylcyclobutyl)-4-(4-((1r,3r)-3-((2-(2,6-dioxopiperidin-3-yl)-7-methoxy-1,3-dioxoisoindolin-5-yl)oxy)cyclobutyl)-1-oxa-4,9-diazaspiro[5.5]undecan-9-yl)benzamide]
DC50: < 1 nM

COCCN(CC1CCN(c2cnc(C(=O)N[C@H]3C(C)(C)[C@H](Oc4cc(C)c(C#N)c(C)c4)C3(C)C)cn2)CC1)[C@H]1C[C@H](Oc2cc3c(cc2OC)C(=O)N(C2CCC(=O)NC2=O)C3=O)C1 (mixture of isomers) [compound 222, rac-N-((1r,3r)-3-(4-cyano-3,5-dimethylphenoxy)-2,2,4,4-tetramethylcyclobutyl)-5-(4-((((1r,3r)-3-((2-(2,6-dioxopiperidin-3-yl)-6-methoxy-1,3-dioxoisoindolin-5-yl)oxy)cyclobutyl)(2-methoxyethyl)amino)methyl)piperidin-1-yl)pyrazine-2-carboxamide]
DC50: < 1 nM

— US20260053932A1, “COMPOUNDS AND METHODS FOR THE TARGETED DEGRADATION OF ANDROGEN RECEPTOR AND ASSOCIATED METHODS OF USE” (Arvinas Operations, Inc., priority 2020, published 2026)
